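Method: 48-hour compound exposure of cells in 96-well plates, five concentrations, linear interpolation of endpoints. At the GI50, growth is halved.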 Active and inactive are the calls of the source. Cut-off read from the data, not from the text of the source: active = GI50 up to about 1.1 µM and inactive = higher.
Key:
Assay in all cases: inhibition of tumour cell growth, NCI panel, 48 h
[1] = system: OVCAR-8
[2] = system: CAKI-1
[3] = system: Hs-578T
[4] = system: SF-268
[5] = system: K562
[6] = system: 786-0
[7] = system: CCRF-CEM
[8] = system: BT-549
[9] = system: NCI/ADR-RES
[10] = system: T47D
[11] = system: NCI-H23
[12] = system: SK-MEL-5
[13] = system: SF-295
[14] = system: HCT-15
[15] = system: LOX IMVI
[16] = system: UACC-62
[17] = system: MDA-MB-435
[18] = system: SN12C
[19] = system: KM12

Structure (SMILES) | GI50 [1] | GI50 [2] | GI50 [3] | GI50 [4] | GI50 [5] | GI50 [6] | GI50 [7] | GI50 [8] | GI50 [9] | GI50 [10] | GI50 [11] | GI50 [12] | GI50 [13] | GI50 [14] | GI50 [15] | GI50 [16] | GI50 [17] | GI50 [18] | GI50 [19]
COC(=O)c1ccc(Oc2nc3ccccc3nc2-c2cccs2)cc1 | 51.8 µM (inactive) | 43.4 µM (inactive) | 19.5 µM (inactive) | 21.3 µM (inactive) | > 10 µM (inactive) | 34.4 µM (inactive) | > 100 µM (inactive) | 45.7 µM (inactive) | 64.1 µM (inactive) | 60.8 µM (inactive) | 23.6 µM (inactive) | > 100 µM (inactive) | 18.7 µM (inactive) | 75.5 µM | > 100 µM (inactive) | 40.6 µM (inactive) | > 100 µM (inactive) | > 100 µM (inactive) | > 100 µM (inactive)
O=C(O)/C=C(/CC(=O)O)C(=O)O | 21.6 µM (inactive) | 20.6 µM (inactive) | 19.9 µM (inactive) | 19 µM (inactive) | 19.2 µM (inactive) | 17.5 µM (inactive) | 13.6 µM (inactive) | 21.1 µM (inactive) | 21 µM (inactive) | 20.2 µM (inactive) | 23.2 µM (inactive) | 21 µM (inactive) | 18.1 µM (inactive) | 22.7 µM | 22.7 µM (inactive) | 18.2 µM (inactive) | 18.3 µM (inactive) | 19.4 µM (inactive) | 23.8 µM (inactive)
Cc1cc(C)nc(NS(=O)(=O)c2ccc(Nc3c4ccccc4nc4c(C(=O)NC(CO)(CO)CO)cccc34)cc2)n1 | 39.3 µM (inactive) | 89.3 µM (inactive) | 38.4 µM (inactive) | 29.5 µM (inactive) | 31.4 µM (inactive) | 29 µM (inactive) | 16.1 µM (inactive) | 21.8 µM (inactive) | > 100 µM (inactive) | 37.8 µM (inactive) | 33.7 µM (inactive) | 20.6 µM (inactive) | 30.8 µM (inactive) | 52 µM | 17.3 µM (inactive) | 31.3 µM (inactive) | 24.9 µM (inactive) | 29.6 µM (inactive) | 17.9 µM (inactive)
Cc1ccc(/N=C2N=C(Cl)/C(=C\c3ccco3)N\2)cc1 | > 100 µM (inactive) | > 100 µM (inactive) | > 100 µM (inactive) | > 100 µM (inactive) | > 100 µM (inactive) | > 100 µM (inactive) | > 100 µM (inactive) | > 100 µM (inactive) | > 100 µM (inactive) | > 100 µM (inactive) | > 100 µM (inactive) | > 100 µM (inactive) | > 100 µM (inactive) | > 100 µM | > 100 µM (inactive) | > 100 µM (inactive) | > 100 µM (inactive) | > 100 µM (inactive) | > 100 µM (inactive)
O=C1CC(NC2CC(=O)c3c(Br)sc(Br)c32)c2c(Br)sc(Br)c21 (stereo not given) | 3.26 µM (inactive) | 3.63 µM (inactive) | 4.91 µM (inactive) | 11.7 µM (inactive) | 2.55 µM (inactive) | 1.51 µM (inactive) | 0.998 µM (active) | 14.1 µM (inactive) | 13.9 µM (inactive) | 2.46 µM (inactive) | 9.48 µM (inactive) | 5.96 µM (inactive) | 13.6 µM (inactive) | 2.94 µM | 1.92 µM (inactive) | 11.9 µM (inactive) | 3.72 µM (inactive) | 1.56 µM (inactive) | 1.99 µM (inactive)
CC(NNC(=O)c1cc[n+]([BH2-]C#N)cc1)C(F)(F)F (stereo not given) | > 100 µM (inactive) | > 100 µM (inactive) | > 100 µM (inactive) | > 100 µM (inactive) | > 100 µM (inactive) | > 100 µM (inactive) | > 100 µM (inactive) | > 100 µM (inactive) | > 100 µM (inactive) | > 100 µM (inactive) | > 100 µM (inactive) | > 100 µM (inactive) | > 100 µM (inactive) | > 100 µM | > 100 µM (inactive) | > 100 µM (inactive) | > 100 µM (inactive) | > 100 µM (inactive) | > 100 µM (inactive)
CCCC(=O)OCC1OC(n2cc(F)c(=O)[nH]c2=O)C(F)C1O (stereo not given) | > 38.5 µM (inactive) | > 10 µM (inactive) | 99.3 µM (inactive) | > 26.4 µM (inactive) | 6.35 µM (inactive) | 30.6 µM (inactive) | 2.24 µM (inactive) | 13.9 µM (inactive) | 53.3 µM (inactive) | > 100 µM (inactive) | > 88.7 µM (inactive) | > 40.4 µM (inactive) | > 27.5 µM (inactive) | > 84.7 µM | 11.4 µM (inactive) | > 31.5 µM (inactive) | 61.5 µM (inactive) | > 82.8 µM (inactive) | > 100 µM (inactive)
NC1CC(=O)c2csc(Br)c21 (stereo not given) | 16.6 µM (inactive) | 10.9 µM (inactive) | 17.4 µM (inactive) | 20 µM (inactive) | 5.97 µM (inactive) | 12.9 µM (inactive) | 4.15 µM (inactive) | 11.8 µM (inactive) | 20.1 µM (inactive) | 24 µM (inactive) | 17.1 µM (inactive) | 20.9 µM (inactive) | 35.2 µM (inactive) | 7.71 µM | 15.6 µM (inactive) | 16.5 µM (inactive) | 12.9 µM (inactive) | 13.4 µM (inactive) | 12.2 µM (inactive)
O=C1C=C(c2ccccc2)OC1C1Sc2ccccc2NC1=O (stereo not given) | 9.31 µM (inactive) | 11.6 µM (inactive) | 6.11 µM (inactive) | 7.71 µM (inactive) | 3.3 µM (inactive) | 5.83 µM (inactive) | 6.43 µM (inactive) | 14.6 µM (inactive) | 34.5 µM (inactive) | 10.4 µM (inactive) | 3.77 µM (inactive) | 9.51 µM (inactive) | 5.98 µM (inactive) | 12.7 µM | 13.6 µM (inactive) | 11.9 µM (inactive) | 5.11 µM (inactive) | 9.23 µM (inactive) | 7.76 µM (inactive)
O=C(NN1C(=O)C(Cl)C1c1ccc(Cl)cc1)c1c(Cl)c(Cl)c(Cl)c(Cl)c1-c1nc2ccccc2[nH]1 (stereo not given) | 17.8 µM (inactive) | 3.73 µM (inactive) | 41.5 µM (inactive) | 25.8 µM (inactive) | 20.1 µM (inactive) | 16.5 µM (inactive) | 8.39 µM (inactive) | 24.4 µM (inactive) | 33 µM (inactive) | < 0.01 µM (active) | 21.5 µM (inactive) | 26.4 µM (inactive) | 23.9 µM (inactive) | 17.6 µM | 16.5 µM (inactive) | 15.7 µM (inactive) | 20.1 µM (inactive) | 23 µM (inactive) | 31.4 µM (inactive)
CC(=O)OCc1ccc2oc(=O)c(C(=O)Oc3ccccc3)cc2c1 | > 100 µM (inactive) | 20 µM (inactive) | > 100 µM (inactive) | 55.7 µM (inactive) | 3.72 µM (inactive) | 20.3 µM (inactive) | > 100 µM (inactive) | > 100 µM (inactive) | > 100 µM (inactive) | 17.6 µM (inactive) | 32.6 µM (inactive) | > 100 µM (inactive) | > 100 µM (inactive) | 19.5 µM | > 100 µM (inactive) | 17.7 µM (inactive) | 61.9 µM (inactive) | 30.1 µM (inactive) | > 100 µM (inactive)
CCOC(=O)n1[nH]c(=O)n(-c2ccccc2)c1=O | > 100 µM (inactive) | > 100 µM (inactive) | > 100 µM (inactive) | > 100 µM (inactive) | > 100 µM (inactive) | > 100 µM (inactive) | > 100 µM (inactive) | > 100 µM (inactive) | > 100 µM (inactive) | > 100 µM (inactive) | > 100 µM (inactive) | > 100 µM (inactive) | > 100 µM (inactive) | > 100 µM | > 100 µM (inactive) | > 100 µM (inactive) | > 100 µM (inactive) | > 100 µM (inactive) | > 100 µM (inactive)
COc1cccc2c1C(=O)c1ccc3cc(CCl)cc(O)c3c1C2=O | 0.228 µM (active) | 0.733 µM (active) | 0.362 µM (active) | 0.379 µM (active) | 0.29 µM (active) | 0.174 µM (active) | 0.309 µM (active) | 0.305 µM (active) | 0.353 µM (active) | 1.2 µM (inactive) | 0.402 µM (active) | 0.364 µM (active) | 0.314 µM (active) | 0.254 µM | 0.158 µM (active) | 0.202 µM (active) | 0.198 µM (active) | 0.163 µM (active) | 0.0605 µM (active)
OC1(C(F)(F)F)OCCN=C1C(F)(F)F (stereo not given) | 53.5 µM (inactive) | 52.2 µM (inactive) | 17.2 µM (inactive) | 53.8 µM (inactive) | > 100 µM (inactive) | > 100 µM (inactive) | 46.8 µM (inactive) | 56.2 µM (inactive) | 88.3 µM (inactive) | > 100 µM (inactive) | > 100 µM (inactive) | 56.2 µM (inactive) | > 100 µM (inactive) | 64.4 µM | > 100 µM (inactive) | > 100 µM (inactive) | > 100 µM (inactive) | 65.9 µM (inactive) | > 100 µM (inactive)
COC(=O)NCCc1n[nH]c2c1C(=O)C=C(Nc1ccccc1OC)C2=O | 13.6 µM (inactive) | 33.9 µM (inactive) | 28.4 µM (inactive) | 45.7 µM (inactive) | 30 µM (inactive) | 38 µM (inactive) | 30.1 µM (inactive) | 25 µM (inactive) | 21.1 µM (inactive) | 30.1 µM (inactive) | 16 µM (inactive) | 13.7 µM (inactive) | 44.5 µM (inactive) | 28.4 µM | 23 µM (inactive) | 18.7 µM (inactive) | 17.1 µM (inactive) | 40.3 µM (inactive) | 24.8 µM (inactive)
